Here are results for 1 compound from ChEMBL document CHEMBL4842364 (J Med Chem, 2021).

The source made the active and inactive calls. The rule behind the calls is not given here.

For data set [1], the target named is Cytochrome P450 3A4 (Homo sapiens, UniProt P08684). The data set is described as follows: Inhibition of CYP3A4 (unknown origin). Format: ADME.
A short description of data set [2]: Permeability of the compound across basolateral to apical side in human Caco-2 cells. Conditions: read-out: permeability. The data set is classed as ADME, cell-based.
Data set [3] can be described thus: Efflux ratio of permeability from basolateral to apical side over apical to basolateral side in human Caco-2 cells. The data set is classed as ADME, cell-based.
The test system of data set [4] is Epidermal growth factor receptor (Homo sapiens), P00533 [UNDEFINED MUTATION]. The experiment in a line: Inhibition of EGFR d747-749/A750P mutant (unknown origin) at 1 uM relative to control.
Data set [5] has the same test system. The experiment in a line: Inhibition of EGFR d746-750 mutant (unknown origin) at 1 uM relative to control.
The target in data set [6] is T1, Serine/threonine-protein kinase Nek1 (Homo sapiens) (UniProt Q96PY6).
T1 sequence (whole entry): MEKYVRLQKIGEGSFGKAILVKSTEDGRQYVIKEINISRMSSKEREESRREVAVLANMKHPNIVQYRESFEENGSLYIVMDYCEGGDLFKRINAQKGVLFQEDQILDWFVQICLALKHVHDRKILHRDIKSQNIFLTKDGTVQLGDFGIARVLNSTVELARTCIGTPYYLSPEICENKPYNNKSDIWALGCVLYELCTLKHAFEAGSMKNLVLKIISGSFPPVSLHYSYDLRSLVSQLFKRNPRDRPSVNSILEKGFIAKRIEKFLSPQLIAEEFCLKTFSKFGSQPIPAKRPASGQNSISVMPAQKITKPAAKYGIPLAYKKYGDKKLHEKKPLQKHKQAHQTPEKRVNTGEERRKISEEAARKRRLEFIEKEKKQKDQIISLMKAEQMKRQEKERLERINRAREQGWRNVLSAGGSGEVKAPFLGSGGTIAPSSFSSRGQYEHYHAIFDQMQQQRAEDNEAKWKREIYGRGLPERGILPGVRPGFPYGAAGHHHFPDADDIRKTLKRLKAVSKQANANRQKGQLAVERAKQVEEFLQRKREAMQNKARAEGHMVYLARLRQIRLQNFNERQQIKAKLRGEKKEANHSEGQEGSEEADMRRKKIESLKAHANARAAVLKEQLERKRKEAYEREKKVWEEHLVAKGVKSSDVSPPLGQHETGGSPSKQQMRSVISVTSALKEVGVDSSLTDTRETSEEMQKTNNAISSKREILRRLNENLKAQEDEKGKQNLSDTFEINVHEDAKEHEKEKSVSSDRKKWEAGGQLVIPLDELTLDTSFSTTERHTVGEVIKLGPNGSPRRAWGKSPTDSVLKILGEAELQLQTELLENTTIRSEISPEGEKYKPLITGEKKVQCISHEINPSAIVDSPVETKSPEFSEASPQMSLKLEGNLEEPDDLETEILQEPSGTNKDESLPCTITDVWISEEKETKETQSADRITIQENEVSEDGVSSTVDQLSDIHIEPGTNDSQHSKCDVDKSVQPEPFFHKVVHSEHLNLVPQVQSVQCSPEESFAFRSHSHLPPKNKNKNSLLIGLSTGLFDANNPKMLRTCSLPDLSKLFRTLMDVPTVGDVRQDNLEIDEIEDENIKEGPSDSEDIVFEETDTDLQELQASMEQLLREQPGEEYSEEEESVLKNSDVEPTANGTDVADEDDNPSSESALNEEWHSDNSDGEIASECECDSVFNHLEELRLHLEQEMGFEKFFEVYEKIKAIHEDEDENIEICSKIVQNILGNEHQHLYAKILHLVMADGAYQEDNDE
The experiment in a line: Inhibition of NEK1 (unknown origin) at 1 uM relative to control.

For data set [7], the target named is Tyrosine-protein kinase Lck (Homo sapiens) (UniProt P06239). The data set is described as follows: Inhibition of LCK (unknown origin) at 1 uM relative to control.
The target of data set [8] is Serine/threonine-protein kinase PLK3 (Homo sapiens, UniProt Q9H4B4). The experiment in a line: Inhibition of PLK3 (unknown origin).
The target of data set [9] is Voltage-gated inwardly rectifying potassium channel KCNH2 (Homo sapiens, UniProt Q12809). The experiment in a line: Inhibition of human ERG.
The nature of data set [10]: AUC in Beagle dog at 10 mg/kg, po measured upto 24 hrs by LC-MS/MS analysis. On the set-up: route oral, dose 10 mg/kg, time <=24. Format: ADME, organism-based, Canis lupus familiaris. Conditions: in vivo.
A short description of data set [11]: Clearance in Beagle dog at 3 mg/kg, iv measured upto 24 hrs by LC-MS/MS analysis. The data set is classed as ADME, organism-based, Canis lupus familiaris. Conditions: in vivo.
Data set [12] concerns A-427. The data set is described as follows: Antitumor activity against human A-427 cells xenografted in SCID mouse assessed as reduction in tumor growth at 80 mg/kg, po administered once daily for 28 days and measured twice per weeks. The data set is classed as functional, organism-based. Conditions: time 28.0 day.
The nature of data set [13]: AUC in mouse plasma at 80 mg/kg, po administered once daily for 28 days. The data set is classed as ADME, organism-based. On the set-up: time 28 day, dose 80 mg/kg.

Chain of Epidermal growth factor receptor (Homo sapiens), P00533 [UNDEFINED MUTATION] (P00533 whole entry, looked up, stated change not applied): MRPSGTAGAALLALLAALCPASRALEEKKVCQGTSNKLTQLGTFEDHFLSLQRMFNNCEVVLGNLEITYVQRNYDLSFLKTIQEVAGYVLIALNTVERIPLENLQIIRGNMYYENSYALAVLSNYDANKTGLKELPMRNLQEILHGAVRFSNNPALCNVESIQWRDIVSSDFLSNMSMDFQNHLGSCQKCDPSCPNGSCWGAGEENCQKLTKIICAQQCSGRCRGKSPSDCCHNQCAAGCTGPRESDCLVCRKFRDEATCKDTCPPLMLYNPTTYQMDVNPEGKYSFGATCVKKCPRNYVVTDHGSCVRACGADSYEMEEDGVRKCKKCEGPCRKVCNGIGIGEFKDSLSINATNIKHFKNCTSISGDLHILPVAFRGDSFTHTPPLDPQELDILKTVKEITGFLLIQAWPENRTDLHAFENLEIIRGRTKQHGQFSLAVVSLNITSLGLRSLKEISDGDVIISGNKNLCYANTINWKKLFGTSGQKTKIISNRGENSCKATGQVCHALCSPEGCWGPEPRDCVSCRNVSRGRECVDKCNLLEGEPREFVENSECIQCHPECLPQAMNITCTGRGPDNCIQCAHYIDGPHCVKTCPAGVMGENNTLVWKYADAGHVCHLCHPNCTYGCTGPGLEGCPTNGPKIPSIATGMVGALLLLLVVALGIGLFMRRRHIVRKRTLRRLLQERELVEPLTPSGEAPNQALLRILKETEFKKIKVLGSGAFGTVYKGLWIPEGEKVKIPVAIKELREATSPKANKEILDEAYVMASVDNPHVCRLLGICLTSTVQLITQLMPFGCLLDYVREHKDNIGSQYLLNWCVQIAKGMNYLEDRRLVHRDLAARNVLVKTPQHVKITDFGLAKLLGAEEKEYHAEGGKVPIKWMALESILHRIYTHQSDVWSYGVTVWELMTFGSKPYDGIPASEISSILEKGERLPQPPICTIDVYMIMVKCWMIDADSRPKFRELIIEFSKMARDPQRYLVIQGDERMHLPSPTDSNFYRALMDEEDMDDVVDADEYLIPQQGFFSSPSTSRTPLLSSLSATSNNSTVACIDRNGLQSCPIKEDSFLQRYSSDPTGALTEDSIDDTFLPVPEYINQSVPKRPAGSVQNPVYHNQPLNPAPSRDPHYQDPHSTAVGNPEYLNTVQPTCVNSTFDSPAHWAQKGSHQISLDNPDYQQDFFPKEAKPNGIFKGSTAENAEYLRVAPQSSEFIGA
Chain of Serine/threonine-protein kinase PLK3 (Q9H4B4 whole entry): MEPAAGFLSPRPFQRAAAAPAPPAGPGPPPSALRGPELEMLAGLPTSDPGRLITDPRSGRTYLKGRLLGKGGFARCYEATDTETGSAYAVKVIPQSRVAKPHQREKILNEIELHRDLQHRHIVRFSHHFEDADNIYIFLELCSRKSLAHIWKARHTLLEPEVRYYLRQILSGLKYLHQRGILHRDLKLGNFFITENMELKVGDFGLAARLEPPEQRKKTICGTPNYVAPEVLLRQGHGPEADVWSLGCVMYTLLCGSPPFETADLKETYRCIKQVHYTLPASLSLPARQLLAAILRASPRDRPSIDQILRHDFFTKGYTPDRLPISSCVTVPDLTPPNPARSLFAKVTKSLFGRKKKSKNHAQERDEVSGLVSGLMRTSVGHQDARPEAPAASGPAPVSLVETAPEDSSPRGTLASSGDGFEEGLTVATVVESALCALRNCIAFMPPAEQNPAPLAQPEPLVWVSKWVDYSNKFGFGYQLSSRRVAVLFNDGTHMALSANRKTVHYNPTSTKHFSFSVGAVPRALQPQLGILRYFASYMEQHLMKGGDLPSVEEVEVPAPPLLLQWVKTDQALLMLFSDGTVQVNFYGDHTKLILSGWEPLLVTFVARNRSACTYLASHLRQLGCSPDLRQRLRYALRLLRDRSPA
Chain of Cytochrome P450 3A4 (P08684 whole entry): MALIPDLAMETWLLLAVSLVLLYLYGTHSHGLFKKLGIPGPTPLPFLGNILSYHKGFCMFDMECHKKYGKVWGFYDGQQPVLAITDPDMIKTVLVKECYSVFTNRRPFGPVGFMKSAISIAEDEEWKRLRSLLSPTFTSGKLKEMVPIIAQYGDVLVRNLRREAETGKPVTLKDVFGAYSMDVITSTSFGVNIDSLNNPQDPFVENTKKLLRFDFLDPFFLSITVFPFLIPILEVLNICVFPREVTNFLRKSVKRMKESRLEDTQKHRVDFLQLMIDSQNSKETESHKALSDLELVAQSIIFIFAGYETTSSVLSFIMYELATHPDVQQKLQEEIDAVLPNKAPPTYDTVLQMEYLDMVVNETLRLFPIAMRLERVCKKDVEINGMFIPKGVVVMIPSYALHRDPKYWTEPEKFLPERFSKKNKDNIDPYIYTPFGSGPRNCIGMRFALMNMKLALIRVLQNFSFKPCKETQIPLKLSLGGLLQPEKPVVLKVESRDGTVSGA
Chain of Tyrosine-protein kinase Lck (Homo sapiens) (P06239 2-509 limits assumed): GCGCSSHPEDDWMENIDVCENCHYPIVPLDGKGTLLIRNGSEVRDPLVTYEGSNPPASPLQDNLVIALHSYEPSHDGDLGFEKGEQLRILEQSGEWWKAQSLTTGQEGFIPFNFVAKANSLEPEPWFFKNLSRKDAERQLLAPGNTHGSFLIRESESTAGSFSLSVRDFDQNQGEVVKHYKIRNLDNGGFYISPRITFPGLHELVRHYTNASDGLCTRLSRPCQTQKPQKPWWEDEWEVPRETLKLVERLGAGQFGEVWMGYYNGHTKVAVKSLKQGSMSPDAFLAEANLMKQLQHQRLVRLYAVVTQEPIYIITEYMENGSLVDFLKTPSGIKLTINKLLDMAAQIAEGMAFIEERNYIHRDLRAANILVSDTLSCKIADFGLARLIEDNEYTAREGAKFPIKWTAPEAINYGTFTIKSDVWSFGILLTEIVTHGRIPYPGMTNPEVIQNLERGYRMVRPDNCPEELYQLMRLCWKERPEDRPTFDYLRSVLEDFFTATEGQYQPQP
Chain of Voltage-gated inwardly rectifying potassium channel KCNH2 (Q12809 whole entry): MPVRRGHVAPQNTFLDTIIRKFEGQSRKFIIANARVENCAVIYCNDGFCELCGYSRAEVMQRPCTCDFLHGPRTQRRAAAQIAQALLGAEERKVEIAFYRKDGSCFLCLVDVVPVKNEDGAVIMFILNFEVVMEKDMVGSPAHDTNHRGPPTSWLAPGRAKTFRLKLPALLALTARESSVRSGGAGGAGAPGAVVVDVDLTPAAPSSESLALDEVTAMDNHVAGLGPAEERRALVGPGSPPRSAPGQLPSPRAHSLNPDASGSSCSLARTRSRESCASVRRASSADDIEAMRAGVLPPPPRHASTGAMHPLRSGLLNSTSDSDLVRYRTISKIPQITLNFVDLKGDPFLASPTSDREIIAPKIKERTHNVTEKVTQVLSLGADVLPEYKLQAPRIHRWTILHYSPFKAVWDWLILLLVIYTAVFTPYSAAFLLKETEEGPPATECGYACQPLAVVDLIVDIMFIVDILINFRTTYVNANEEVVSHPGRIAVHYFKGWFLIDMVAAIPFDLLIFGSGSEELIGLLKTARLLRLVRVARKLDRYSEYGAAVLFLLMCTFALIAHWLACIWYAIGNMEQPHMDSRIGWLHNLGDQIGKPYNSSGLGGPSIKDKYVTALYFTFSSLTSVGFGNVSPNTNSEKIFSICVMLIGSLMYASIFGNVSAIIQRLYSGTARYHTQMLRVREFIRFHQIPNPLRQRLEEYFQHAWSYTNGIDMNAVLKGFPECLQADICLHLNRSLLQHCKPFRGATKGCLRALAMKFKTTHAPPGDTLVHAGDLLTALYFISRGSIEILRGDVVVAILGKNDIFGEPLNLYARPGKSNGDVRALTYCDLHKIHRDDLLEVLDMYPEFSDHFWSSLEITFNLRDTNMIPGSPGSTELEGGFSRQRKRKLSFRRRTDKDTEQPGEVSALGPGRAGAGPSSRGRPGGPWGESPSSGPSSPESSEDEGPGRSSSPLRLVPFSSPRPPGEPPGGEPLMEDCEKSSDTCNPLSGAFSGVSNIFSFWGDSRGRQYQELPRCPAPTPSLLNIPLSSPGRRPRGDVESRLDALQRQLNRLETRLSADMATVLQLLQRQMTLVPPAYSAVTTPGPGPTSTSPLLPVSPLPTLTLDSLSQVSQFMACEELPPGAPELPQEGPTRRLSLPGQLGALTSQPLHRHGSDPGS

With `C=CCn1c(=O)c2cnc(Nc3ccc(N4CCN(C)CC4)cc3)nc2n1-c1ccc2c(n1)C(O)(CC)CC2` (racemic), the IC50 in [1] is 7 µM; in [8], 0.07 µM; in [9], greater than 30 µM. The Papp B→A in [2] was 255 nm/s. The efflux ratio in data set [3] amounted to 7. The inhibition was greater than 90% in data set [4], 75% in data set [5], 75% in data set [6] and 75% in [7]. The compound further had an AUC at 24 h in data set [10] of 9.7 µM·h. For the same compound, in [11], the clearance was 2.76 L/h/kg. The outcome in [12] was Active. For the same compound, the AUC at 672 h in data set [13] was found to be 45 µM·h.
